EP4745137A1 (Gluetacs Therapeutics (Shanghai) Co., Ltd., priority 2023, dated 2025)

Experiments:
WEE1 = target: T1, WEE1 (Homo sapiens, UniProt P30291+Q96SW2); assay: Western-blot assay of substrate protein degradation in hPBMCs, WEE1; format: cell-based; conditions: 24 hours of compound treatment, compounds tested at 50 nM and 500 nM (concentration of the table not stated)
T1 construct: endogenous in cells; host or cells: hPBMCs (Milecell Biotechnologies)

IKZF1 = target: T2, IKZF1 (Homo sapiens, UniProt Q13422+Q96SW2); assay: Western-blot assay of substrate protein degradation in hPBMCs, IKZF1; format: cell-based; conditions: 24 hours of compound treatment, compounds tested at 50 nM and 500 nM (concentration of the table not stated)
T2 construct: endogenous in cells; host or cells: hPBMCs (Milecell Biotechnologies)

IKZF2 = target: T3, IKZF2 (Homo sapiens, UniProt Q96SW2+Q9UKS7); assay: Western-blot assay of substrate protein degradation in hPBMCs, IKZF2; format: cell-based; conditions: 24 hours of compound treatment, compounds tested at 50 nM and 500 nM (concentration of the table not stated)
T3 construct: endogenous in cells; host or cells: hPBMCs (Milecell Biotechnologies)
T3 sequence (Q9UKS7 whole entry): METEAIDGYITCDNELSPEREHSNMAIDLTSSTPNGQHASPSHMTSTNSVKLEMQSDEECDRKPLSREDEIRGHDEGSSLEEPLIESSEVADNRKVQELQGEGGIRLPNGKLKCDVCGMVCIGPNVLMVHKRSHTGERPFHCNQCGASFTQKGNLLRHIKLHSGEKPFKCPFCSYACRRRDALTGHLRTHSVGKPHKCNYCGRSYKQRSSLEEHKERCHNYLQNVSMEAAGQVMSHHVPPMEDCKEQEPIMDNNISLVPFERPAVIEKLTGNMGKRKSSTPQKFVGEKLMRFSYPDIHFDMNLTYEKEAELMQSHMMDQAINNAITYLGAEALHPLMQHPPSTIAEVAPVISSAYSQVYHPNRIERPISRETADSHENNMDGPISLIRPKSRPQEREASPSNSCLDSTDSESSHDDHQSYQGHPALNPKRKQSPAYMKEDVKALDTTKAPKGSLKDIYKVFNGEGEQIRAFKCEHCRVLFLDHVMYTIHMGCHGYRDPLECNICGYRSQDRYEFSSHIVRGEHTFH
T3 sequence (Q96SW2 whole entry): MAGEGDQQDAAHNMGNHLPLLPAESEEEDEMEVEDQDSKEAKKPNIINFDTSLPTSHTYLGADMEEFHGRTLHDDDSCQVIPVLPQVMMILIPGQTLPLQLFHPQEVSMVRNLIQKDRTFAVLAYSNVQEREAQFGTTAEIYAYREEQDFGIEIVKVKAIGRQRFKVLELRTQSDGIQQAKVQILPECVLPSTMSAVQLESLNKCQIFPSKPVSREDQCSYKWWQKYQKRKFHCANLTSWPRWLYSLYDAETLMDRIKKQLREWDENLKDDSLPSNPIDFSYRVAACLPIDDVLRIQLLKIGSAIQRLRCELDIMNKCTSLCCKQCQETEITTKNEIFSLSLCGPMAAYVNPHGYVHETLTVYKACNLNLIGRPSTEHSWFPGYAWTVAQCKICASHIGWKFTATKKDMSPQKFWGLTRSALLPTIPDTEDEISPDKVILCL
T3 sequence (Q16531 whole entry partner): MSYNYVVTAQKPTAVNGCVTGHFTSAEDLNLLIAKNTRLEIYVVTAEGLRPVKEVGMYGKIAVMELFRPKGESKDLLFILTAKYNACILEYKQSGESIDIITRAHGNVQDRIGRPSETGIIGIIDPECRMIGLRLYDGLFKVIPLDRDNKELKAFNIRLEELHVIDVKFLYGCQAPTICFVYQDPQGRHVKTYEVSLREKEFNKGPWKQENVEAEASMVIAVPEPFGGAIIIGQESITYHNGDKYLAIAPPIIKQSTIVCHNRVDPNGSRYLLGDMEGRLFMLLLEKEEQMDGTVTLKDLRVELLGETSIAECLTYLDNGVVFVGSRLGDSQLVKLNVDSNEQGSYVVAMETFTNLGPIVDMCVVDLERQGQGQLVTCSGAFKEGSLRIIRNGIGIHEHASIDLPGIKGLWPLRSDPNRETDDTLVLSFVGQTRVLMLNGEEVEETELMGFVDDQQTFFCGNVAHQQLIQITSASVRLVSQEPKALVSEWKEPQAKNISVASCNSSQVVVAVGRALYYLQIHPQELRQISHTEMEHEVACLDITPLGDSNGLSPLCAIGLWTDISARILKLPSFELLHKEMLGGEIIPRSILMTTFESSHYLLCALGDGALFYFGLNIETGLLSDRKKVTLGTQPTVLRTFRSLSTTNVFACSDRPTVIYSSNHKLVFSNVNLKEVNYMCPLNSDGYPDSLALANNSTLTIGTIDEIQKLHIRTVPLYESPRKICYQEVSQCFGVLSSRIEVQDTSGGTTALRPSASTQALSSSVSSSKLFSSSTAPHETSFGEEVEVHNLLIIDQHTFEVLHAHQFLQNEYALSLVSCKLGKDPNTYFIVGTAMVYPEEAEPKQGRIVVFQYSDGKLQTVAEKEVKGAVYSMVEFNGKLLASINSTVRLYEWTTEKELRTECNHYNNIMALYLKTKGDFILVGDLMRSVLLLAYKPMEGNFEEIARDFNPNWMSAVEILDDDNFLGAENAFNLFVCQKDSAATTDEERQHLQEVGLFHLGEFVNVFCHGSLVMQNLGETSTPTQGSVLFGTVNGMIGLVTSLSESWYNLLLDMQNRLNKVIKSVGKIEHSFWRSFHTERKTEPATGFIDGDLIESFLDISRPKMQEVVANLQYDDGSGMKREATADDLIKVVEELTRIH

IKZF3 = target: T4, IKZF3 (Homo sapiens, UniProt Q96SW2+Q9UKT9); assay: Western-blot assay of substrate protein degradation in hPBMCs, IKZF3; format: cell-based; conditions: 24 hours of compound treatment, compounds tested at 50 nM and 500 nM (concentration of the table not stated)
T4 construct: endogenous in cells; host or cells: hPBMCs (Milecell Biotechnologies)
T4 sequence (Q9UKT9 whole entry): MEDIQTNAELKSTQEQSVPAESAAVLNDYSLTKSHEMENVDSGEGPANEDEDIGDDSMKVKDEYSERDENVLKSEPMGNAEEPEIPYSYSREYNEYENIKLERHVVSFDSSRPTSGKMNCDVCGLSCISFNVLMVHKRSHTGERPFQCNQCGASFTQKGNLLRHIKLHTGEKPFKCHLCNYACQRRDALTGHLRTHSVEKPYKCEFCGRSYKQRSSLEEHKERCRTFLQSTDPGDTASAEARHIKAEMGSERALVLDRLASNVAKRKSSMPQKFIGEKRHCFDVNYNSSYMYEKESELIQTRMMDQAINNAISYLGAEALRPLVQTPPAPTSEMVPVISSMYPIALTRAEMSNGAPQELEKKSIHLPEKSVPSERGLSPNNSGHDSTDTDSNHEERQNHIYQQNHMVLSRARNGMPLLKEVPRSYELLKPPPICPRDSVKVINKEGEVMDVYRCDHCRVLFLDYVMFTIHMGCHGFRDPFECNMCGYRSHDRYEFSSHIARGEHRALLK
T4 sequence (Q96SW2 whole entry): as the sequence (Q96SW2 whole entry) above
T4 sequence (Q16531 whole entry partner): as the sequence (Q16531 whole entry partner) above

CK1α = target: T5, CK1α (Homo sapiens, UniProt P48729+Q96SW2); assay: Western-blot assay of substrate protein degradation in hPBMCs, CK1α; format: cell-based; conditions: 24 hours of compound treatment, compounds tested at 50 nM and 500 nM (concentration of the table not stated)
T5 construct: endogenous in cells; host or cells: hPBMCs (Milecell Biotechnologies)
T5 sequence (P48729 whole entry): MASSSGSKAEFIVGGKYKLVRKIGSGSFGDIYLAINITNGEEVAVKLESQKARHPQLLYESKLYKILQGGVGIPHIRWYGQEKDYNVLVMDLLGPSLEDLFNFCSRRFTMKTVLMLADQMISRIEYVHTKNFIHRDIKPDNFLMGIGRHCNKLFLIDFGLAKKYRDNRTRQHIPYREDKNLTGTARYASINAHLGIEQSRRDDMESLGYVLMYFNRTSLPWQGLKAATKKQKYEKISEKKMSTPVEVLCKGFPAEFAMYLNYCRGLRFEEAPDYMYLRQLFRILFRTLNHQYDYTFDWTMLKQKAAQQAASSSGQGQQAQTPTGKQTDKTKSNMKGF
T5 sequence (Q96SW2 whole entry): as the sequence (Q96SW2 whole entry) above
T5 sequence (Q16531 whole entry partner): as the sequence (Q16531 whole entry partner) above

GSPT1 = target: T6, GSPT1 (Homo sapiens, UniProt P15170+Q96SW2); assay: Western-blot assay of substrate protein degradation in hPBMCs, GSPT1; format: cell-based; conditions: 24 hours of compound treatment, compounds tested at 50 nM and 500 nM (concentration of the table not stated)
T6 construct: endogenous in cells; host or cells: hPBMCs (Milecell Biotechnologies)
T6 sequence (P15170 whole entry): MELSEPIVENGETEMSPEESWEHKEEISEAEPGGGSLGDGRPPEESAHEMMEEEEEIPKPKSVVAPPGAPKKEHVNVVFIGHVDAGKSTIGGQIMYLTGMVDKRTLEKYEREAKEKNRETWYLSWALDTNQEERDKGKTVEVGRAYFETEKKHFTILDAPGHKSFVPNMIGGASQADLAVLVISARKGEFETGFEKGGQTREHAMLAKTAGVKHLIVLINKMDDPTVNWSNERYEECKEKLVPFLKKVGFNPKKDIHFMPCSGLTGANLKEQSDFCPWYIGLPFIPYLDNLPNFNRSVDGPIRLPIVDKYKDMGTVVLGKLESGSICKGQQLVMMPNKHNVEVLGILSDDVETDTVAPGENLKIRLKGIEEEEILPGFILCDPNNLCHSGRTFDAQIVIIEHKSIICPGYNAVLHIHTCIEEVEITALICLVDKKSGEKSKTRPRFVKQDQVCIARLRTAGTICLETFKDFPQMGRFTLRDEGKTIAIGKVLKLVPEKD
T6 sequence (Q96SW2 whole entry): as the sequence (Q96SW2 whole entry) above
T6 sequence (Q16531 whole entry partner): as the sequence (Q16531 whole entry partner) above

[1] = target: T7, human Cereblon WT GST-tagged protein (Homo sapiens, UniProt Q96SW2); assay: CRBN-binding affinity by HTRF (CEREBLON BINDING kit); conditions: HTRF inhibitory activity, CEREBLON BINDING kit; read-out: HTRF IC50
T7 construct: purchased CISBIO 64BDCRBNPEH
T7 sequence (Q96SW2 whole entry): as the sequence (Q96SW2 whole entry) above

T1 sequence (P30291 whole entry): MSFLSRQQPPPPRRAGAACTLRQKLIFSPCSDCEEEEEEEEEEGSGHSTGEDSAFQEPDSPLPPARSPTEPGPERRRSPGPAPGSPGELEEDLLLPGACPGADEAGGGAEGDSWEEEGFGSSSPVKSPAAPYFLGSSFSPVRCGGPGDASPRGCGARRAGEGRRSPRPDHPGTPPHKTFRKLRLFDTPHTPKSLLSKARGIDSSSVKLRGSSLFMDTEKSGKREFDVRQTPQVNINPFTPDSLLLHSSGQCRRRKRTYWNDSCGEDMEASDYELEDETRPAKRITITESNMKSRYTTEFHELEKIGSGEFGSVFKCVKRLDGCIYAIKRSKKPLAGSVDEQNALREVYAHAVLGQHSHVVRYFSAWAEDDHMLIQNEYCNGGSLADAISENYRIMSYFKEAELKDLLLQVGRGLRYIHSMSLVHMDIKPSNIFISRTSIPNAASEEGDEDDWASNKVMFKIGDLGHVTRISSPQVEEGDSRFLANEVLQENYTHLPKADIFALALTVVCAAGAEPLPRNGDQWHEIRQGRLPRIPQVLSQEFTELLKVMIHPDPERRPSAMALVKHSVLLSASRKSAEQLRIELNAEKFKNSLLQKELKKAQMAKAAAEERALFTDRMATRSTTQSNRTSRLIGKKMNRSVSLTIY
T1 sequence (Q96SW2 whole entry): as the sequence (Q96SW2 whole entry) above
T1 sequence (Q16531 whole entry partner): as the sequence (Q16531 whole entry partner) above

| IC50 [1] [nM] | SMILES | Weel substrate protein remaining % (WEE1) | IKZF 1 substrate protein remaining % (IKZF1) | IKZF2 substrate protein remaining % (IKZF2) | IKZF3 substrate protein remaining % (IKZF3) | CK1a substrate protein remaining % (CK1α) | GSPT1 substrate protein remaining % (GSPT1) |
| --- | --- | --- | --- | --- | --- | --- | --- |
| 500 to 1000 | CC(C)c1cc2c(N3CCN(Cc4ccc5c(c4)CN(C4CCC(=O)NC4=O)C5=O)CC3)ncnc2s1 (stereo not drawn) [GT-04705, 3-(5-((4-(6-isopropylthieno[2,3-d]pyrimidin-4-yl)piperazin-1-yl)methyl)-1-oxoisoindolin-2-yl)piperidine-2,6-dione] | B (80%< substrate protein remaining %≤ 100%) | A (0% ≤ substrate protein remaining % ≤ 80%) | A (0% ≤ substrate protein remaining % ≤ 80%) | A (0% ≤ substrate protein remaining % ≤ 80%) | A (0% ≤ substrate protein remaining % ≤ 80%) | A (0% ≤ substrate protein remaining % ≤ 80%) |
| 500 to 1000 | Cc1sc2ncnc(N3CCN(Cc4ccc5c(c4)CN(C4CCC(=O)NC4=O)C5=O)CC3)c2c1C (stereo not drawn) [GT-04706, 3-(5-((4-(5,6-dimethylthieno[2,3-d]pyrimidin-4-yl)piperazin-1-yl)methyl)-1-oxoisoindolin-2-yl)piperidine-2,6-dione] | B (80%< substrate protein remaining %≤ 100%) | A (0% ≤ substrate protein remaining % ≤ 80%) | A (0% ≤ substrate protein remaining % ≤ 80%) | A (0% ≤ substrate protein remaining % ≤ 80%) | A (0% ≤ substrate protein remaining % ≤ 80%) | A (0% ≤ substrate protein remaining % ≤ 80%) |
| < 500 | Cc1sc2ncnc(N3CCCN(Cc4ccc5c(c4)CN(C4CCC(=O)NC4=O)C5=O)CC3)c2c1C (stereo not drawn) [GT-04707, 3-(5-((4-(5,6-dimethylthieno[2,3-d]pyrimidin-4-yl)-1,4-diazepan-1-yl)methyl)-1-oxoisoindolin-2-yl)piperidine-2,6-dione] | B (80%< substrate protein remaining %≤ 100%) | A (0% ≤ substrate protein remaining % ≤ 80%) | A (0% ≤ substrate protein remaining % ≤ 80%) | A (0% ≤ substrate protein remaining % ≤ 80%) | A (0% ≤ substrate protein remaining % ≤ 80%) | A (0% ≤ substrate protein remaining % ≤ 80%) |
| < 500 | O=C1CCC(N2Cc3cc(CN4CCN(c5ncnc6scc(-c7ccccc7)c56)CC4)ccc3C2=O)C(=O)N1 (stereo not drawn) [GT-04709, 3-(1-oxo-5-((4-(5-phenylthieno[2,3-d]pyrimidin-4-yl)piperazin-1-yl)methyl)isoindolin-2-yl)piperidine-2,6-dione] | B (80%< substrate protein remaining %≤ 100%) | B (80%< substrate protein remaining %≤ 100%) | B (80%< substrate protein remaining %≤ 100%) | A (0% ≤ substrate protein remaining % ≤ 80%) | A (0% ≤ substrate protein remaining % ≤ 80%) | A (0% ≤ substrate protein remaining % ≤ 80%) |
| 1500 to 1900 | O=C1CCC(N2Cc3cc(CN4CCC(c5ccon5)CC4)ccc3C2=O)C(=O)N1 (stereo not drawn) [GT-04715, 3-(5-((4-(isoxazol-3-yl)piperidin-1-yl)methyl)-1-oxoisoindolin-2-yl)piperidine-2,6-dione] | A (0% ≤ substrate protein remaining % ≤ 80%) | A (0% ≤ substrate protein remaining % ≤ 80%) | A (0% ≤ substrate protein remaining % ≤ 80%) | A (0% ≤ substrate protein remaining % ≤ 80%) | A (0% ≤ substrate protein remaining % ≤ 80%) | A (0% ≤ substrate protein remaining % ≤ 80%) |

| SMILES | IC50 [1] [nM] | Weel substrate protein remaining % (WEE1) | IKZF 1 substrate protein remaining % (IKZF1) | IKZF2 substrate protein remaining % (IKZF2) | IKZF3 substrate protein remaining % (IKZF3) | CK1a substrate protein remaining % (CK1α) | GSPT1 substrate protein remaining % (GSPT1) |
| --- | --- | --- | --- | --- | --- | --- | --- |
| O=C1CCC(N2Cc3cc(CN4CCC(n5c(=O)[nH]c6cc(F)ccc65)CC4)ccc3C2=O)C(=O)N1 (stereo not drawn) [GT-04714, 3-(5-((4-(5-fluoro-2-oxo-2,3-dihydro-1H-benzo[d]imidazol-1-yl)piperidin-1-yl)methyl)-1-oxoisoindolin-2-yl)piperidine-2,6-dione] | 500 to 1000 | A (0% ≤ substrate protein remaining % ≤ 80%) | A (0% ≤ substrate protein remaining % ≤ 80%) | A (0% ≤ substrate protein remaining % ≤ 80%) | A (0% ≤ substrate protein remaining % ≤ 80%) | A (0% ≤ substrate protein remaining % ≤ 80%) | A (0% ≤ substrate protein remaining % ≤ 80%) |
